Assay results from patent US20100003217A1, “Compounds and Pharmaceutical Compositions for the Treatment of Viral Infections” (priority 2008, published 2010).
Where “and” joins values, the source holds several entries; their conditions need not be identical. Identical values can stand only once.

Assays:
rat primary hepatocytes = experiment: Metabolic disposition of [^14C]-Compound 1 and [^14C]-2′-C-methyl guanosine in rat primary hepatocytes (incubation medium, cellular extracts, nucleotide levels); assay type: in vitro ADME, Sprague Dawley rat; settings: rat hepatocytes
Summary of the method: (§1)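 Rat, monkey or human primary hepatocytes on collagen I plates (1.6 million cells/mL) were incubated at 37° C with 1 or 10 μM C-8 [^14C]-labelled compound or 2′-C-methyl guanosine for 1, 4, 8 and 24 hours. Medium and 70% methanol cell extracts were analysed by LSC and radio-HPLC. Nucleotides were identified by alkaline phosphatase treatment and retention-time matching to standards.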

[1] = test system: human primary hepatocytes; experiment: Metabolic disposition of [^14C]-Compound 1 and [^14C]-2′-C-methyl guanosine in human primary hepatocytes (incubation medium, cellular extracts, nucleotide levels); assay type: in vitro ADME; settings: for AUC (area under the concentration-time curve) of Compound 7 levels: 0-24 h
Summary of the method: as §1

[2] = human hepatocytes (Hu775), 1 μM [^14C]-Compound 1, 1 h
[3] = human hepatocytes (Hu775), 1 μM [^14C]-Compound 1, 8 h
[4] = human hepatocytes (Hu775), 1 μM [^14C]-Compound 1, 24 h
[5] = human hepatocytes Hu775, 1 μM [^14C]-2′-C-methyl guanosine, 1 h
[6] = human hepatocytes Hu775, 1 μM [^14C]-2′-C-methyl guanosine, 8 h
[7] = human hepatocytes Hu775, 1 μM [^14C]-2′-C-methyl guanosine, 24 h

For `C[C@@]1(O)[C@H](O)[C@@H](COP(=O)(O)OP(=O)(O)OP(=O)(O)O)O[C@H]1n1cnc2c(=O)[nH]c(N)nc21` [Compound 7, [(2R)-2-methyl-β-D-ribofuranosyl]guanine 5′-triphosphate], the “Compound 7 AUC0-24h” value (rat primary hepatocytes; 10 μM [^14C]-Compound 1) was 29,846 pmol*h/million cells, the “Compound 7 maximum levels” value (rat primary hepatocytes; 10 μM [^14C]-Compound 1, at 8 hours) was 1,705 pmol/million cells and the “metabolites observed in cellular extracts (% of total radioactivity)” value ([1]; human hepatocytes (Hu759, Hu775), 10 μM [^14C]-2′-C-methyl guanosine, 1 h) was 2.40% and 3.93%. For the same compound, the “metabolites observed in cellular extracts (% of total radioactivity)” value ([1]; human hepatocytes (Hu759, Hu775), 10 μM [^14C]-2′-C-methyl guanosine, 4 h) was 11.1% and 19.4%, the “metabolites observed in cellular extracts (% of total radioactivity)” value ([1]; human hepatocytes (Hu759, Hu775), 10 μM [^14C]-2′-C-methyl guanosine, 8 h) was 19.6% and 34.1% and the “metabolites observed in cellular extracts (% of total radioactivity)” value ([1]; human hepatocytes (Hu759, Hu775), 10 μM [^14C]-2′-C-methyl guanosine, 24 h) was 36.1% and 45.8%. For the same compound, the “metabolites observed in cellular extracts (% of total radioactivity)” value ([1]; human hepatocytes (Hu759, Hu775), 10 μM [^14C]-Compound 1, 1 h) was 34.2% and 46.4%, the “metabolites observed in cellular extracts (% of total radioactivity)” value ([1]; human hepatocytes (Hu759, Hu775), 10 μM [^14C]-Compound 1, 4 h) was 63.1% and 69.7% and the “metabolites observed in cellular extracts (% of total radioactivity)” value ([1]; human hepatocytes (Hu759, Hu775), 10 μM [^14C]-Compound 1, 8 h) was 70.5% and 74.1%. The “metabolites observed in cellular extracts (% of total radioactivity)” value ([1]; human hepatocytes (Hu759, Hu775), 10 μM [^14C]-Compound 1, 24 h) was 69.5% and 59.6%, the “2′-C-methyl guanosine nucleotide levels in cellular extracts” value (“2′-C-methyl guanosine nucleotide levels” for short) [1, 2] was 8.80 pmol/million cells and the “metabolites observed in cellular extracts (% of total radioactivity)” value [1, 2] was 48.5%. The “2′-C-methyl guanosine nucleotide levels” value [1, 3] was 44.2 pmol/million cells, the “metabolites observed in cellular extracts (% of total radioactivity)” value [1, 3] was 75.0% and the “2′-C-methyl guanosine nucleotide levels” value [1, 4] was 60.4 pmol/million cells. The “metabolites observed in cellular extracts (% of total radioactivity)” value [1, 4] was 67.0%, the “Compound 7 AUC0-24h” value ([1]; human hepatocytes (n=1), 1 μM [^14C]-2′-C-methyl guanosine) was 302 pmol*h/million cells and the “Compound 7 AUC0-24h” value ([1]; human hepatocytes (n=1), 1 μM [^14C]-Compound 1) was 1,027 pmol*h/million cells. The “Compound 7 AUC0-24h” value ([1]; human hepatocytes (n=2), 10 μM [^14C]-Compound 1, mean) was 7,398 pmol*h/million cells, the “2′-C-methyl guanosine nucleotide levels” value ([1]; human hepatocytes Hu759, 10 μM [^14C]-2′-C-methyl guanosine, 0 h) was 0 pmol/million cells and the “AUC (area under the concentration-time curve) of Compound 7 levels” value (“AUC … of Compound 7 levels” below) ([1]; human hepatocytes Hu759, 10 μM [^14C]-2′-C-methyl guanosine) was 2871 pmol * hr/million cells. For the same compound, the “2′-C-methyl guanosine nucleotide levels” value ([1]; human hepatocytes Hu759, 10 μM [^14C]-2′-C-methyl guanosine, 1 h) was 9.70 pmol/million cells, the “2′-C-methyl guanosine nucleotide levels” value ([1]; human hepatocytes Hu759, 10 μM [^14C]-2′-C-methyl guanosine, 4 h) was 51.0 pmol/million cells and the “2′-C-methyl guanosine nucleotide levels” value ([1]; human hepatocytes Hu759, 10 μM [^14C]-2′-C-methyl guanosine, 8 h) was 96.0 pmol/million cells. The “2′-C-methyl guanosine nucleotide levels” value ([1]; human hepatocytes Hu759, 10 μM [^14C]-2′-C-methyl guanosine, 24 h) was 214 pmol/million cells, the “2′-C-methyl guanosine nucleotide levels” value ([1]; human hepatocytes Hu759, 10 μM [^14C]-Compound 1, 0 h) was 0 pmol/million cells and the “AUC … of Compound 7 levels” value ([1]; human hepatocytes Hu759, 10 μM [^14C]-Compound 1) was 5759 pmol * hr/million cells. The “2′-C-methyl guanosine nucleotide levels” value ([1]; human hepatocytes Hu759, 10 μM [^14C]-Compound 1, 1 h) was 24.0 pmol/million cells, the “2′-C-methyl guanosine nucleotide levels” value ([1]; human hepatocytes Hu759, 10 μM [^14C]-Compound 1, 4 h) was 166 pmol/million cells and the “2′-C-methyl guanosine nucleotide levels” value ([1]; human hepatocytes Hu759, 10 μM [^14C]-Compound 1, 8 h) was 225 pmol/million cells. The “2′-C-methyl guanosine nucleotide levels” value ([1]; human hepatocytes Hu759, 10 μM [^14C]-Compound 1, 24 h) was 360 pmol/million cells, the “AUC … of Compound 7 levels” value ([1]; human hepatocytes Hu775, 1 μM [^14C]-2′-C-methyl guanosine) was 302 pmol * hr/million cells and the “2′-C-methyl guanosine nucleotide levels” value [1, 5] was 1.90 pmol/million cells. For the same compound, the “Major metabolites observed in cellular extracts (% of total radioactivity)” value [1, 5] was 5.36 % of total radioactivity, the “2′-C-methyl guanosine nucleotide levels” value [1, 6] was 11.0 pmol/million cells and the “Major metabolites observed in cellular extracts (% of total radioactivity)” value [1, 6] was 27.3 % of total radioactivity. The “2′-C-methyl guanosine nucleotide levels” value [1, 7] was 21.0 pmol/million cells, the “Major metabolites observed in cellular extracts (% of total radioactivity)” value [1, 7] was 46.3 % of total radioactivity and the “AUC … of Compound 7 levels” value ([1]; human hepatocytes Hu775, 1 μM [^14C]-Compound 1) was 1027 pmol * hr/million cells. The “2′-C-methyl guanosine nucleotide levels” value ([1]; human hepatocytes Hu775, 10 μM [^14C]-2′-C-methyl guanosine, 0 h) was 0 pmol/million cells, the “AUC … of Compound 7 levels” value ([1]; human hepatocytes Hu775, 10 μM [^14C]-2′-C-methyl guanosine) was 3548 pmol * hr/million cells and the “2′-C-methyl guanosine nucleotide levels” value ([1]; human hepatocytes Hu775, 10 μM [^14C]-2′-C-methyl guanosine, 1 h) was 18.5 pmol/million cells. For the same compound, the “2′-C-methyl guanosine nucleotide levels” value ([1]; human hepatocytes Hu775, 10 μM [^14C]-2′-C-methyl guanosine, 4 h) was 86 pmol/million cells and 86.0 pmol/million cells, the “2′-C-methyl guanosine nucleotide levels” value ([1]; human hepatocytes Hu775, 10 μM [^14C]-2′-C-methyl guanosine, 8 h) was 149 pmol/million cells and the “2′-C-methyl guanosine nucleotide levels” value ([1]; human hepatocytes Hu775, 10 μM [^14C]-2′-C-methyl guanosine, 24 h) was 215 pmol/million cells. The “2′-C-methyl guanosine nucleotide levels” value ([1]; human hepatocytes Hu775, 10 μM [^14C]-Compound 1, 0 h) was 0 pmol/million cells, the “AUC … of Compound 7 levels” value ([1]; human hepatocytes Hu775, 10 μM [^14C]-Compound 1) was 9036 pmol * hr/million cells and the “2′-C-methyl guanosine nucleotide levels” value ([1]; human hepatocytes Hu775, 10 μM [^14C]-Compound 1, 1 h) was 54 pmol/million cells and 54.0 pmol/million cells. For the same compound, the “2′-C-methyl guanosine nucleotide levels” value ([1]; human hepatocytes Hu775, 10 μM [^14C]-Compound 1, 4 h) was 216 pmol/million cells, the “2′-C-methyl guanosine nucleotide levels” value ([1]; human hepatocytes Hu775, 10 μM [^14C]-Compound 1, 8 h) was 366 pmol/million cells and the “2′-C-methyl guanosine nucleotide levels” value ([1]; human hepatocytes Hu775, 10 μM [^14C]-Compound 1, 24 h) was 564 pmol/million cells. For the same compound, the “Compound 7 maximal levels” value ([1]; human hepatocytes, 1 μM [^14C]-Compound 1) was 60.4 pmol/million cells, the “Maximum Compound 7 levels” value ([1]; human hepatocytes, 10 μM [^14C]-2′-C-methyl guanosine, at 24 hours) was 215 pmol/million cells and the “Maximum Compound 7 levels” value ([1]; human hepatocytes, 10 μM [^14C]-Compound 1, at 24 hours, mean of two donors) was 296 pmol/million cells.
